The source made the active and inactive calls. No cut-off for these calls is given here.
How the values were obtained:
3T3-L1 [1] = assay: Cytotoxicity against mouse 3T3L1 cells assessed as decrease in cell viability after 24 hrs by MTT assay; assay type: cell-based; details: 3T3-L1, 24 h
HepG2 [2] = assay: Lipid lowering activity in human HepG2 cells assessed as decrease in triglyceride level at 10 uM for 6 days in presence of oleic acid by oil red o-staining based assay relative to control; assay type: functional; parameters: scale not given: the % may be the effect or the level left
HepG2 [3] = assay: Cytotoxicity against human HepG2 cells assessed as decrease in cell viability after 24 hrs by MTT assay; assay type: cell-based; details: HepG2, 24 h
3T3-L1 [4] = assay: Lipid lowering activity in mouse 3T3L1 cells assessed as decrease in triglyceride level at 10 uM for 6 days by oil red o-staining based assay relative to control; assay type: functional; parameters: scale not given: the % may be the effect or the level left
Mus musculus = species on record: Mus musculus; assay: Induction of AMPKalpha phosphorylation at Thr172 residue in mouse 3T3L1 cells at 2 mM after 4 hrs by Western blot analysis; assay type: cell-based
3T3-L1 [5] = assay: Lipid lowering activity in mouse 3T3L1 cells assessed as decrease in triglyceride level at 10 uM for 6 days by oil red o-staining based microscopic assay; assay type: functional, cell-based
3T3-L1 [6] = assay: Cytotoxicity against mouse 3T3L1 cells assessed as decrease in cell viability up to 10 uM measured up to 72 hrs by LDH release assay; assay type: cell-based; details: 3t3-l1, 72 h
3T3-L1 [7] = assay: Lipid lowering activity in mouse 3T3L1 cells assessed as decrease in triglyceride level treated 2 days post confluent for 9 days by oil red o-staining based assay; assay type: functional, cell-based

| SMILES | IC50 (3T3-L1 [1]) | Activity (HepG2 [2]) | IC50 (HepG2 [3]) | Activity (3T3-L1 [4]) | Activity (Mus musculus) | Activity (3T3-L1 [5]) | Activity (3T3-L1 [6]) | Activity (3T3-L1 [7]) | EC50 (3T3-L1 [7]) |
| --- | --- | --- | --- | --- | --- | --- | --- | --- | --- |
| Brc1c(-c2nc(NCCCN3CCCCC3)c3ccccc3n2)[nH]c2ccccc12 | 14.9 µM | 62.3% | 6 µM | 84.9% | – | – | – | – | – |
| O=Cc1c(-c2nc(NCCN3CCCC3)c3ccccc3n2)[nH]c2ccccc12 | – | – | – | 94.9% | – | – | – | – | – |
| NC(=O)c1ncn([C@@H]2O[C@H](CO)[C@@H](O)[C@H]2O)c1N | – | – | – | – | Active | – | – | – | – |
| CN(C)CCNc1nc(-c2cc3ccccc3[nH]2)nc2ccccc12 | 12.9 µM | 0.6% | 25.3 µM | 42.3% | – | – | – | – | – |
| OCCCNc1nc(-c2[nH]c3ccccc3c2F)nc2ccccc12 | > 50 µM | 26.3% | 30 µM | 44.4% | – | – | – | – | – |
| Brc1c(-c2nc(NCCN3CCCCC3)c3ccccc3n2)[nH]c2ccccc12 | 13.2 µM | 62.1% | 5.1 µM | 83.8% | – | – | – | – | – |
| c1ccc2[nH]c(-c3nc(NCCCN4CCCC4)c4ccccc4n3)cc2c1 | > 50 µM | 14.2% | > 50 µM | 42.7% | – | – | – | – | – |
| CN(C)CCCNc1nc(-c2[nH]c3ccccc3c2Br)nc2ccccc12 | 11.6 µM | 28.3% | 4.3 µM | 59.2% | – | Active | – | – | – |
| O=c1[nH]c(-c2[nH]c3ccccc3c2Br)nc2ccccc12 | > 50 µM | 40.4% | > 50 µM | 34.6% | – | Active | – | – | – |
| Clc1c(-c2nc(NCCN3CCOCC3)c3ccccc3n2)[nH]c2ccccc12 | 37.9 µM | 46.9% | 15.6 µM | 54.6% | – | – | – | – | – |
| CC(C)CCNc1nc(-c2[nH]c3ccccc3c2F)nc2ccccc12 | > 50 µM | 38.7% | 28.7 µM | 37.3% | – | Active | – | – | – |
| Fc1c(-c2nc(NCCN3CCCC3)c3ccccc3n2)[nH]c2ccccc12 | 24.5 µM | 23.6% | 7.3 µM | 64.2% | – | – | – | – | – |
| O=c1[nH]c(-c2[nH]c3ccccc3c2Cl)nc2ccccc12 | > 50 µM | 51.9% | > 50 µM | 35.4% | – | Active | – | – | – |
| CC(C)CNc1nc(-c2[nH]c3ccccc3c2Cl)nc2ccccc12 | > 50 µM | 42.8% | 22.8 µM | 45.7% | – | Active | – | – | – |
| CN(C)CCNc1nc(-c2[nH]c3ccccc3c2F)nc2ccccc12 | 21.7 µM | 24.2% | 4.2 µM | 57.3% | – | – | – | – | – |
| CCN(CC)CCNc1nc(-c2[nH]c3ccccc3c2Br)nc2ccccc12 | 15.4 µM | 50% | 6.1 µM | 86.5% | – | – | – | – | – |
| CN(C)CCCNc1nc(-c2[nH]c3ccccc3c2Cl)nc2ccccc12 | 18.1 µM | 35.8% | 4.1 µM | 49.5% | – | – | – | – | – |
| Clc1c(-c2nc(NCCCN3CCCC3)c3ccccc3n2)[nH]c2ccccc12 | 20.1 µM | 51.4% | 4.7 µM | 53.8% | – | – | – | – | – |
| CN(C)CCCNc1nc(-c2cc3ccccc3[nH]2)nc2ccccc12 | 30.3 µM | 5.8% | 44.2 µM | 48.2% | – | – | – | – | – |

| SMILES | IC50 (3T3-L1 [1]) | Activity (HepG2 [2]) | IC50 (HepG2 [3]) | Activity (3T3-L1 [4]) | Activity (Mus musculus) | Activity (3T3-L1 [5]) | Activity (3T3-L1 [6]) | Activity (3T3-L1 [7]) | EC50 (3T3-L1 [7]) |
| --- | --- | --- | --- | --- | --- | --- | --- | --- | --- |
| Clc1c(-c2nc(NCCCN3CCOCC3)c3ccccc3n2)[nH]c2ccccc12 | 30.1 µM | 36.6% | 10.3 µM | 56.6% | – | – | – | – | – |
| CCN(CC)CCNc1nc(-c2[nH]c3ccccc3c2Cl)nc2ccccc12 | 19.2 µM | 15.6% | 4.6 µM | 87.5% | – | – | – | – | – |
| CN(C)CCCNc1nc(-c2[nH]c3ccccc3c2F)nc2ccccc12 | 22.2 µM | 32.7% | 6 µM | 45% | – | – | – | – | – |
| Clc1nc(-c2[nH]c3ccccc3c2Cl)nc2ccccc12 | > 50 µM | 37.7% | > 50 µM | 45.6% | – | Active | – | – | – |
| CN1CCN(CCCNc2nc(-c3[nH]c4ccccc4c3Cl)nc3ccccc23)CC1 | 14.4 µM | 41.2% | 2.7 µM | 83.4% | – | – | – | – | – |
| OCCNc1nc(-c2[nH]c3ccccc3c2Cl)nc2ccccc12 | > 50 µM | 53.1% | 20.9 µM | 38.3% | – | – | – | – | – |
| c1ccc2[nH]c(-c3nc(NCCN4CCCC4)c4ccccc4n3)cc2c1 | 20.4 µM | 13.1% | 40.4 µM | 66.8% | – | – | – | – | – |
| O=c1[nH]c(C2=Nc3ccccc3C2(F)F)nc2ccccc12 | > 50 µM | 24.1% | > 50 µM | 39.4% | – | Active | – | – | – |
| Clc1nc(-c2[nH]c3ccccc3c2Br)nc2ccccc12 | > 50 µM | 0.9% | > 50 µM | 58.9% | – | Active | – | – | – |
| O=c1[nH]c(-c2cc3ccccc3[nH]2)nc2ccccc12 | 43.8 µM | 14.9% | 14.9 µM | 43.8% | – | – | – | – | – |
| Brc1c(-c2nc(NCCN3CCCC3)c3ccccc3n2)[nH]c2ccccc12 | 12.6 µM | 54.3% | 4.3 µM | 84.2% | – | – | – | – | – |
| Clc1c(-c2nc(NCCN3CCCCC3)c3ccccc3n2)[nH]c2ccccc12 | 41.6 µM | 52% | 18 µM | 70.3% | – | Active | – | – | – |
| CN(C)CCCNc1nc(-c2[nH]c3ccccc3c2C=O)nc2ccccc12 | 34.4 µM | 52.1% | 27.4 µM | 82.1% | – | Active | – | – | – |
| CN(C)CCNc1nc(-c2[nH]c3ccccc3c2Br)nc2ccccc12 | 11.4 µM | 46.1% | 4.1 µM | 56.4% | – | Active | – | – | – |
| Clc1c(-c2nc(NCCN3CCCC3)c3ccccc3n2)[nH]c2ccccc12 | 24.5 µM | 42.5% | 2.5 µM | 60.5% | – | – | – | – | – |
| CN(C)CCNc1nc(-c2[nH]c3ccccc3c2Cl)nc2ccccc12 | 14.8 µM | 33% | 2.7 µM | 89.1% | – | – | – | – | – |
| Brc1c(-c2nc(NCCCN3CCCC3)c3ccccc3n2)[nH]c2ccccc12 | 9.6 µM | 53.1% | 3.1 µM | 81.6% | – | – | – | – | – |
| CN1CCN(CCCNc2nc(-c3[nH]c4ccccc4c3F)nc3ccccc23)CC1 | 19.8 µM | 22.5% | 5.2 µM | 42.5% | – | – | – | – | – |
| Fc1c(-c2nc(Cl)c3ccccc3n2)[nH]c2ccccc12 | > 50 µM | 40.7% | > 50 µM | 71.8% | – | Active | Non-Toxic | Dose-dependent effect | 0.92 µM |

— ChEMBL document CHEMBL4145536, “Design, synthesis and biological evaluation of novel bouchardatine analogs as potential inhibitors of adipogenesis/lipogenesis in 3T3-L1 adipocytes” (Eur J Med Chem, 2018)
